The record followed here is US9777005B2 (Takeda Pharmaceutical Company Limited, priority 2012, dated 2017).

This experiment addresses T1, human M1 receptor (hCHRM1) (Homo sapiens, UniProt P11229).
T1 construct: expressed in transfected cells; host or cells: CHO-K1
T1 sequence (P11229 1-460): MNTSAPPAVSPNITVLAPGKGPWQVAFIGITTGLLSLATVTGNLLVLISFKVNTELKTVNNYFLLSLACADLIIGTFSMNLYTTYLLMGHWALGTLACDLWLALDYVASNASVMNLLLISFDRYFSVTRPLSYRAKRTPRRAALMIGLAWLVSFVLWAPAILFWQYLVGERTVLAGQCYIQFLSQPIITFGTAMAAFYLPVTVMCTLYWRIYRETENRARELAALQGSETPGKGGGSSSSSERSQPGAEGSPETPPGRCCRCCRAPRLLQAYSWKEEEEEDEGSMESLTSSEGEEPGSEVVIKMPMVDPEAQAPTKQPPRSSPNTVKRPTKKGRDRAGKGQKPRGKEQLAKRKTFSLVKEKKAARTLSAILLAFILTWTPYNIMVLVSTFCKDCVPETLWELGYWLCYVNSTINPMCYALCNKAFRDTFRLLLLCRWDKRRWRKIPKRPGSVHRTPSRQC
The experiment is described as follows: Measurement of M1 receptor positive allosteric modulator (M1PAM) activity, calcium fluorescence (FLIPRtetra) in CHO-K1 cells in the presence of acetylcholine at EC20. In kind it is cell-based. Conditions: in the presence of acetylcholine at EC20 (final 0.6 nM), CHO-K1 cells expressing hCHRM1; for EC50: inflection point of M1PAM activity, read-out: IP value; for activity (%) at 10 μM: test compound 10 μM. Summed up: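 CHO-K1 cells expressing human M1 were loaded with Fluo-4 AM, and compound was added with acetylcholine at EC20 (final 0.6 nM). Calcium fluorescence was read on FLIPRtetra for 1 min. Activity was normalized to 1 μM acetylcholine (100%) and DMSO (0%), and the curve inflection point was reported as IP.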

For the compound `O=C1c2c(ccnc2O[C@@H]2CCCC[C@H]2O)CN1Cc1c(F)cc(F)cc1F` (single isomer, unassigned) [Example 315, 4-((trans-2-hydroxycyclohexyl)oxy)-2-(2,4,6-trifluorobenzyl)-1,2-dihydro-3H-pyrrolo[3,4-c]pyridin-3-one], the EC50 came to 0.0066 µM and the “activity (%) at 10 μM” value was found to be 101%.

For the compound `O=C1c2c(cccc2O[C@@H]2CCOC[C@H]2O)CN1Cc1c(F)cc(F)cc1F` (single isomer, unassigned) [Example 318, 1,5-anhydro-2-deoxy-3-O-(3-oxo-2-(2,4,6-trifluorobenzyl)-2,3-dihydro-1H-isoindol-4-yl)-threo-pentitol], the EC50 amounted to 0.026 µM and the “activity (%) at 10 μM” value was determined as 99%.

Turning to `O=C1c2c(ccnc2O[C@@H]2CCCC[C@H]2O)CN1Cc1cc(F)ccc1F` (single isomer, unassigned) [Example 319, 2-(2,5-difluorobenzyl)-4-((trans-2-hydroxycyclohexyl)oxy)-1,2-dihydro-3H-pyrrolo[3,4-c]pyridin-3-one], the EC50 stood at 0.0091 µM and the “activity (%) at 10 μM” value was 104%.

On to `O=C1c2c(ccnc2O[C@@H]2CCCC[C@H]2O)CN1Cc1cccc(F)c1` (single isomer, unassigned) [Example 321, 2-(3-fluorobenzyl)-4-((trans-2-hydroxycyclohexyl)oxy)-1,2-dihydro-3H-pyrrolo[3,4-c]pyridin-3-one], for which the EC50 was found to be 0.032 µM and the “activity (%) at 10 μM” value came out at 104%.

For `Cn1cc(-c2ccc(CN3Cc4cccc(OCC5CCCO5)c4C3=O)cc2)cn1` (stereo not drawn) [Example 5, 2-(4-(1-methyl-1H-pyrazol-4-yl)benzyl)-7-((tetrahydrofuran-2-yl)methoxy)isoindolin-1-one], the EC50 was 0.02 µM and the “activity (%) at 10 μM” value is 102%.

With `Cn1cc(-c2ccc(CN3Cc4cccc(Oc5c(F)cccc5C#N)c4C3=O)cc2)cn1` [Example 6, 3-fluoro-2-((2-(4-(1-methyl-1H-pyrazol-4-yl)benzyl)-3-oxo-2,3-dihydro-1H-isoindol-4-yl)oxy)benzonitrile], the EC50 came to 0.031 µM and the “activity (%) at 10 μM” value turned out to be 90%.

With `Cn1cc(-c2ccc(CN3Cc4cccc(OCCN5CCCC5)c4C3=O)cc2)cn1` [Example 8, 2-(4-(1-methyl-1H-pyrazol-4-yl)benzyl)-7-(2-(pyrrolidin-1-yl)ethoxy)isoindolin-1-one], the EC50 was determined as 0.033 µM and the “activity (%) at 10 μM” value was 99%.

With `Cn1cc(-c2ccc(CN3Cc4cccc(Oc5c(Cl)cccc5C#N)c4C3=O)cc2)cn1` [Example 9, 3-chloro-2-((2-(4-(1-methyl-1H-pyrazol-4-yl)benzyl)-3-oxo-2,3-dihydro-1H-isoindol-4-yl)oxy)benzonitrile], the EC50 stood at 0.034 µM and the “activity (%) at 10 μM” value is on record as 93%.

On to `Cn1cc(-c2ccc(CN3Cc4cccc(Oc5c(F)cc([N+](=O)[O-])cc5Cl)c4C3=O)cc2)cn1` [Example 10, 7-(2-chloro-6-fluoro-4-nitrophenoxy)-2-(4-(1-methyl-1H-pyrazol-4-yl)benzyl)isoindolin-1-one], for which the EC50 is 0.054 µM and the “activity (%) at 10 μM” value was 103%.

As to `Cn1cc(-c2ccc(CN3Cc4cccc(Oc5c(F)cc(N)cc5Cl)c4C3=O)cc2)cn1` [Example 11, 7-(4-amino-2-chloro-6-fluorophenoxy)-2-(4-(1-methyl-1H-pyrazol-4-yl)benzyl)isoindolin-1-one], the EC50 was found to be 0.065 µM and the “activity (%) at 10 μM” value stood at 102%.

For `Cn1cc(-c2ccc(CN3Cc4cccc(Oc5c(F)cccc5Cl)c4C3=O)cc2)cn1` [Example 12, 7-(2-chloro-6-fluorophenoxy)-2-(4-(1-methyl-1H-pyrazol-4-yl)benzyl)isoindolin-1-one], the EC50 amounted to 0.036 µM and the “activity (%) at 10 μM” value is recorded as 57%.

As for `Cn1cc(-c2ccc(CN3Cc4cccc(OC[C@H]5CCCO5)c4C3=O)cc2)cn1` [Example 13, 2-(4-(1-methyl-1H-pyrazol-4-yl)benzyl)-7-((2R)-(tetrahydrofuran-2-yl)methoxy)isoindolin-1-one], the EC50 is 0.043 µM and the “activity (%) at 10 μM” value turned out to be 102%.

`Cn1cc(-c2ccc(CN3Cc4cccc(OCC(=O)N5CCCCC5)c4C3=O)cc2)cn1` [Example 16, 2-(4-(1-methyl-1H-pyrazol-4-yl)benzyl)-7-(2-oxo-2-(piperidin-1-yl)ethoxy)isoindolin-1-one]: the EC50 is 0.047 µM and the “activity (%) at 10 μM” value came out at 106%.

Take `Cn1cc(-c2ccc(CN3Cc4cccc(OCCO)c4C3=O)cc2)cn1` [Example 17, 7-(2-hydroxyethoxy)-2-(4-(1-methyl-1H-pyrazol-4-yl)benzyl)isoindolin-1-one]: the EC50 was determined as 0.12 µM and the “activity (%) at 10 μM” value was 118%.

Turning to `Cn1cc(-c2ccc(CN3Cc4cccc(OCCN5CCC(F)(F)CC5)c4C3=O)cc2)cn1` [Example 18, 7-(2-(4,4-difluoropiperidin-1-yl)ethoxy)-2-(4-(1-methyl-1H-pyrazol-4-yl)benzyl)isoindolin-1-one], the EC50 amounted to 0.06 µM and the “activity (%) at 10 μM” value is recorded as 107%.

For `Cn1cc(-c2ccc(CN3Cc4cccc(OCCn5cccn5)c4C3=O)cc2)cn1` [Example 19, 2-(4-(1-methyl-1H-pyrazol-4-yl)benzyl)-7-(2-(H-pyrazol-1-yl)ethoxy)isoindolin-1-one], the EC50 is 0.11 µM and the “activity (%) at 10 μM” value was determined as 91%.

For `Cn1cc(-c2ccc(CN3Cc4cccc(Oc5cccnc5C#N)c4C3=O)cc2)cn1` [Example 20, 3-((2-(4-(1-methyl-1H-pyrazol-4-yl)benzyl)-3-oxo-2,3-dihydro-1H-isoindol-4-yl)oxy)pyridine-2-carbonitrile], the EC50 was 0.08 µM and the “activity (%) at 10 μM” value turned out to be 100%.

Take `Cn1cc(-c2ccc(CN3Cc4cccc(OCCN5CCCCC5)c4C3=O)cc2)cn1` [Example 21, 2-(4-(1-methyl-1H-pyrazol-4-yl)benzyl)-7-(2-(piperidin-1-yl)ethoxy)isoindolin-1-one]: the EC50 was 0.096 µM and the “activity (%) at 10 μM” value came to 105%.

Take `Cc1n[nH]c(C)c1Oc1cccc2c1C(=O)N(Cc1ccc(-c3cnn(C)c3)cc1)C2` [Example 22, 7-((3,5-dimethyl-1H-pyrazol-4-yl)oxy)-2-(4-(1-methyl-1H-pyrazol-4-yl)benzyl)isoindolin-1-one]: the EC50 was 0.19 µM and the “activity (%) at 10 μM” value amounted to 103%.

Take `O=C(NCC1CCCO1)c1ccc(CN2Cc3cccc(OCC4CCCO4)c3C2=O)cc1` (stereo not drawn) [Example 38, 4-((1-oxo-7-((tetrahydrofuran-2-yl)methoxy)-1,3-dihydro-2H-isoindol-2-yl)methyl)-N-((tetrahydrofuran-2-yl)methyl)benzamide]: the EC50 worked out at 0.044 µM and the “activity (%) at 10 μM” value is 118%.

For the compound `Cl.N#Cc1cccc(F)c1Oc1cccc2c1C(=O)N(Cc1ccc(-c3ccn[nH]3)cc1)C2` [Example 42, 3-fluoro-2-((3-oxo-2-(4-(1H-pyrazol-5-yl)benzyl)-2,3-dihydro-1H-isoindol-4-yl)oxy)benzonitrile hydrochloride], the EC50 stood at 0.085 µM and the “activity (%) at 10 μM” value is reported as 107%.

As to `O=C1c2c(cccc2OCC2CCCO2)CN1Cc1ccc(-n2cccn2)cc1` (stereo not drawn) [Example 53, 2-(4-(1H-pyrazol-1-yl)benzyl)-7-((tetrahydrofuran-2-yl)methoxy)isoindolin-1-one], the EC50 came to 0.27 µM and the “activity (%) at 10 μM” value is on record as 90%.

With `Cn1cc(-c2ccc(CN3Cc4nccc(OCC5CCCO5)c4C3=O)cc2)cn1` (stereo not drawn) [Example 59, 6-(4-(1-methyl-1H-pyrazol-4-yl)benzyl)-4-((tetrahydrofuran-2-yl)methoxy)-6,7-dihydro-5H-pyrrolo[3,4-b]pyridin-5-one], the EC50 is 0.057 µM and the “activity (%) at 10 μM” value was found to be 136%.

Turning to `O=C1c2c(OCC3CCCO3)ccnc2CN1Cc1ccc(-n2cccn2)cc1` (stereo not drawn) [Example 60, 6-(4-(1H-pyrazol-1-yl)benzyl)-4-((tetrahydrofuran-2-yl)methoxy)-6,7-dihydro-5H-pyrrolo[3,4-b]pyridin-5-one], the EC50 was determined as 0.32 µM and the “activity (%) at 10 μM” value stood at 115%.

In the case of `O=C1c2c(ccnc2OCC2CCCO2)CN1Cc1ccc(-n2cccn2)cc1` (stereo not drawn) [Example 61, 2-(4-(1H-pyrazol-1-yl)benzyl)-4-((tetrahydrofuran-2-yl)methoxy)-1H-pyrrolo[3,4-c]pyridin-3(2H)-one], the EC50 was 0.037 µM and the “activity (%) at 10 μM” value is 113%.

With `Cn1cc(-c2ccc(CN3Cc4cccc(Oc5c(F)cccc5C#N)c4C3=O)cn2)cn1` [Example 65, 3-fluoro-2-((2-((6-(1-methyl-1H-pyrazol-4-yl)pyridin-3-yl)methyl)-3-oxo-2,3-dihydro-1H-isoindol-4-yl)oxy)benzonitrile], the EC50 was 0.063 µM and the “activity (%) at 10 μM” value came to 76%.

As to `N#Cc1cccc(F)c1Oc1cccc2c1C(=O)N(Cc1ccc(-n3cccn3)cc1)C2` [Example 66, 3-fluoro-2-((3-oxo-2-(4-(1H-pyrazol-1-yl)benzyl)-2,3-dihydro-1H-isoindol-4-yl)oxy)benzonitrile], the EC50 is 0.069 µM and the “activity (%) at 10 μM” value came to 101%.
